US4962109A, “Insecticidally and acaricidally active pyrimidine esters and intermediates therefor” (Imperial Chemical Industries PLC, priority 1985, dated 1990)

Key:
Format in all cases: in vivo
[1] = system: Tetranychus urticae (spider mites - adult); assay: Contact test on spider mites - adult (TUa), French bean leaf, mortality; conditions: 72 h, 500 ppm, contact, 3 days, read-out: TUa grading of mortality
Method in brief: (§1)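 Graded read-out: A 80-100%, B 50-79%, C below 50% mortality or knockdown, assessed usually 1-3 days post-treatment. Liquid preparations at 500, 250 or 100 ppm by weight, from acetone solution diluted in water with 0.01% wetting agent, applied to pests and/or their host plant or food medium.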

[2] = system: Tetranychus urticae (spider mites - ova); assay: Contact test on spider mites - ova (TUe), French bean leaf, mortality; conditions: 144 h, 500 ppm, contact, 6 days, read-out: TUe grading of mortality
Method in brief: as §1

Myzus persicae (aphids) = assay: Contact test on aphids (MP), Chinese Cabbage leaf, mortality; conditions: 72 h, 500 ppm, contact, 3 days, read-out: MP grading of mortality
Method in brief: as §1

[3] = system: Nephotettix cincticeps (green leaf hopper - nymphs); assay: Contact test on green leaf hopper nymphs (NC), Rice plant, mortality; conditions: 48 h, 500 ppm, contact, 2 days, read-out: NC grading of mortality
Method in brief: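 Product dissolved in acetone, diluted in water with 0.01% wetting agent to 500, 250 or 100 ppm; nymphs and/or host rice plants treated. Mortality or knockdown assessed 1–3 days later, graded A (80-100%), B (50-79%), C (<50%).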

[4] = system: Musca domestica (houseflies - adults); assay: Knockdown test on houseflies - adults (MD/KD), Cotton wool/sugar; conditions: 500 ppm, 4 hours, read-out: MD/KD grading of knockdown
Method in brief: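 Adult houseflies exposed to the compound at 500, 250 or 100 ppm in acetone/water with 0.01% wetting agent, on a cotton wool/sugar medium. Knockdown and mortality assessed, graded A (80-100%), B (50-79%) or C (<50%).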

[5] = system: Musca domestica (houseflies - adults); assay: Contact test on houseflies - adults (MD), Cotton wool/sugar, mortality; conditions: 72 h, 500 ppm, contact, 3 days, read-out: MD grading of mortality
Method in brief: as §1

[6] = system: Blattella germanica (cockroach nymphs); assay: Contact test on cockroach nymphs (BG/C), Plastic pot, mortality; conditions: 48 h, 500 ppm, contact, 2 days, read-out: BG/C grading of mortality
Method in brief: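 Cockroach nymphs and/or their medium were treated with aqueous preparations at 500, 250 or 100 ppm (acetone solution diluted in water with 0.01% Lissapol NX wetting agent). Mortality or knockdown was assessed typically 1–3 days later and graded A (80–100%), B (50–79%) or C (<50%).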

[7] = system: Heliothis virescens (tobacco budworm - larvae); assay: Residual test on tobacco budworm larvae (HV), Cotton leaf, mortality; conditions: 48 h, read-out: HV grading of mortality
Method in brief: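 Product in acetone diluted with water containing 0.01% Lissapol NX, at 500, 250 or 100 ppm; pests and/or host medium (here cotton leaf) treated. Mortality scored one to three days later, graded A (80-100%), B (50-79%), C (<50%).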

[8] = system: Spodoptera exigua (lesser army worm - larvae); assay: Residual test on lesser army worm larvae (SP), Cotton leaf, mortality; conditions: 48 h, 500 ppm, residual, 2 days, read-out: SP grading of mortality
Method in brief: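 Product dissolved in acetone and diluted in water with 0.01% wetting agent to 500, 250 or 100 ppm; larvae and/or cotton leaf host treated. Mortality or knockdown scored one to three days later and graded A (80-100%), B (50-79%) or C (<50%).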

[9] = system: Diabrotica balteata (rootworm larvae); assay: Residual test on rootworm larvae (DB), Filter paper/maize seed, mortality; conditions: 48 h, 500 ppm, residual, 2 days, read-out: DB grading of mortality
Method in brief: as §1

Compound | mortality at 500 ppm [1] | mortality at 500 ppm [2] | mortality at 500 ppm (Myzus persicae (aphids)) | mortality at 500 ppm [3] | pest or weed control at 500 ppm [4] | mortality at 500 ppm [5] | mortality at 500 ppm [6] | mortality at 500 ppm [7] | mortality at 500 ppm [8] | mortality at 500 ppm [9]
C=CCC(C(=O)OCc1c(F)c(F)c(COC)c(F)c1F)c1cnc(C(C)(C)C)nc1 (racemic) [Compound 212, 4-(methoxymethyl)-2,3,5,6-tetrafluorobenzyl (RS)-2-[2-(1,1-dimethylethyl)pyrimidin-5-yl]pent-4-enoate] | 80 to 100% | < 50% | 80 to 100% | 80 to 100% | 80 to 100% | < 50% | < 50% | < 50% | 50 to 79% | < 50%
CC(C)(C)c1ncc(C(C(=O)OCc2c(F)c(F)c(CC=CCl)c(F)c2F)C(C)(C)C)cn1 (racemic) [Compound 14, 4-(EZ-3-chloroprop-2-en-1-yl)-2,3,5,6-tetrafluorobenzyl (RS)-2-[(1,1-dimethylethyl)pyrimidin-5-yl)-3,3-dimethylbutanoate] | 80 to 100% | < 50% | 80 to 100% | 80 to 100% | 50 to 79% | 80 to 100% | < 50% | 80 to 100% | < 50% | < 50%
COCc1c(F)c(F)c(COC(=O)C(c2cnc(C(C)(C)C)nc2)C(F)(F)F)c(F)c1F (racemic) [Compound 213, 4-(methoxymethyl)-2,3,5,6-tetrafluorobenzyl (RS)-2-[2-(1,1-dimethylethyl)pyrimidin-5-yl]-3,3,3-trifluoropropionate] | 80 to 100% | < 50% | 50 to 79% | < 50% | 80 to 100% | < 50% | 50 to 79% | < 50% | < 50% | < 50%
CCC(C)(C)c1ncc(C(C(=O)OCc2c(F)c(F)c(COC)c(F)c2F)C(C)(C)C)cn1 (racemic) [Compound 61, 2,3,5,6-tetrafluoro-4-(methoxymethyl)benzyl (RS)-2-[2-(1,1-dimethylpropyl)pyrimidin-5-yl]-3,3-dimethylbutanoate] | 80 to 100% | < 50% | 80 to 100% | 80 to 100% | 80 to 100% | 80 to 100% | < 50% | < 50% | 80 to 100% | < 50%
COCc1c(F)c(F)c(COC(=O)C(c2cnc(C(C)(C)C)nc2)C(C)(C)C)c(F)c1OC (racemic) [Compound 217, 2,3,6-trifluoro-5-methoxy-4-(methmethyl)-benzyl (RS)-2-[2-(1,1-dimethylethyl)pyrimidin-5-yl]-3,3-dimethylbutanoate] | 80 to 100% | < 50% | 80 to 100% | 80 to 100% | 80 to 100% | 80 to 100% | < 50% | 80 to 100% | 80 to 100% | < 50%
CC(C)(C)c1ncc(C(C(=O)OCc2c(F)c(F)c(COCc3ccc(Cl)cc3)c(F)c2F)C(C)(C)C)cn1 (racemic) [Compound 163, 4-[(4-chlorobenzyloxy)methyl]-2,3,5,6-tetrafluorobenyl (RS)-2-[2-(1,1-dimethylethyl)pyrimidin-5-yl]-3,3-dimethylbutanoate] | 80 to 100% | < 50% | < 50% | < 50% | < 50% | < 50% | < 50% | < 50% | 50 to 79% | < 50%
CC(C)(C)c1ncc(C(C(=O)OCc2c(F)c(F)c(CC3CC3(Cl)Cl)c(F)c2F)C(C)(C)C)cn1 (racemic) [Compound 216, 4-[(2,2-dichlorocyclopropyl)methyl]-2,3,5,6-tetrafluorobenzyl (RS)-2-[2-(1,1-dimethylethyl)pyrimidin-5-yl]-3,3-dimethylbutanoate] | 80 to 100% | < 50% | < 50% | 50 to 79% | < 50% | < 50% | < 50% | < 50% | 50 to 79% | < 50%
CC(C)(C)c1ncc([C@H](C(=O)O[C@H](c2cccc(Oc3ccccc3)n2)C(F)(F)F)C(C)(C)C)cn1 (racemic) [Compound 32, (RS)-1-(6-phenoxypyrid-2-yl)-2,2,2-trifluoroethyl (RS)-2-[2-(1,1-dimethylethyl)pyrimidin-5-yl]-3,3-dimethylbutanoate] | 80 to 100% | 50 to 79% | 80 to 100% | 80 to 100% | 80 to 100% | 80 to 100% | < 50% | 80 to 100% | 80 to 100% | 80 to 100%
CC(C)(C)c1ncc(C(C(=O)OCc2cccc(Oc3ccccc3)c2)C(C)(C)C)cn1 (racemic) [Compound 1, 3-phenoxybenzyl (RS)-2-[2-(1,1,-dimethylethyl)pyrimidin-5-yl]-3,3-dimethylbutanoate] | 80 to 100% | 80 to 100% | 80 to 100% | 80 to 100% | 80 to 100% | < 50% | < 50% | 80 to 100% | < 50% | < 50%
CC(C)(C)OC(=O)COCc1c(F)c(F)c(COC(=O)C(c2cnc(C(C)(C)C)nc2)C(C)(C)C)c(F)c1F (racemic) [Compound 165, 4-[(1,1-dimethylethyl)oxycarbonylmethoxymethyl]-2,3,5,6-tetrafluorobenzyl (RS)-2-[2-(1,1-dimethylethyl]pyrimidin-5-yl]-3,3-dimethylbutanoate] | < 50% | < 50% | < 50% | 50 to 79% | < 50% | < 50% | < 50% | < 50% | < 50% | < 50%
CCOc1c(F)c(COC)c(F)c(F)c1COC(=O)C(c1cnc(C(C)(C)C)nc1)C(C)(C)C (racemic) [Compound 185, 2,3,5-trifluoro-6-ethoxy-4-(methoxymethyl)benzyl (RS)-2-[2-(1,1-dimethylethyl)pyrimidin-5-yl]-3,3-dimethylbutanoate] | 80 to 100% | < 50% | 80 to 100% | 80 to 100% | 80 to 100% | 50 to 79% | < 50% | 80 to 100% | 80 to 100% | < 50%
C=CC(C)(C)C(C(=O)OCc1c(F)c(F)c(COC)c(F)c1F)c1cnc(C(C)(C)C)nc1 (racemic) [Compound 211, 4-(methoxymethyl)-2,3,5,6-tetrafluorobenzyl (RS)-2-[2-(1,1-dimethylethyl)pyrimidin-5-yl]-3,3-dimethylpent-4-enoate] | 80 to 100% | 80 to 100% | 80 to 100% | 80 to 100% | 80 to 100% | < 50% | < 50% | < 50% | 80 to 100% | < 50%
